Blank lines part the entries; values can stand above or below the compound they belong to.
Tested on: 422866-222-R5-J1-PDC complex spheroids viability
Assay: Anticancer human tumor 422866-222-R5-J1-PDC patient-derived pancreatic adenocarcinoma cell line growth inhibition [RAS]
Details: for IC50: curve of first compound; for viability, T/C: stronger effect = lower value
In short: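 Agents were tested in combination matrices in half-log decrements from a top concentration at or near clinical Cmax (10 microM if undetermined). Targets were multi-cell spheroids of tumour lines plus HUVEC and MSC stromal cells.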

[1] = second compound 0.000949 µM, first compound 0.0316 µM
[2] = second compound 0.000949 µM, first compound 0.1 µM
[3] = second compound 0.000949 µM, first compound 0.316 µM
[4] = second compound 0.000949 µM, first compound 1 µM
[5] = second compound 0.003 µM, first compound 0.0316 µM
[6] = second compound 0.003 µM, first compound 0.1 µM
[7] = second compound 0.003 µM, first compound 0.316 µM
[8] = second compound 0.003 µM, first compound 1 µM
[9] = second compound 0.00949 µM, first compound 0.0316 µM
[10] = second compound 0.00949 µM, first compound 0.1 µM
[11] = second compound 0.00949 µM, first compound 0.316 µM
[12] = second compound 0.00949 µM, first compound 1 µM
[13] = second compound 0.03 µM, first compound 0.0316 µM
[14] = second compound 0.03 µM, first compound 0.1 µM
[15] = second compound 0.03 µM, first compound 0.316 µM
[16] = second compound 0.03 µM, first compound 1 µM
[17] = second compound 0.0949 µM, first compound 0.0316 µM
[18] = second compound 0.0949 µM, first compound 0.1 µM
[19] = second compound 0.0949 µM, first compound 0.316 µM
[20] = second compound 0.0949 µM, first compound 1 µM
[21] = second compound 0.3 µM, first compound 0.0316 µM
[22] = second compound 0.3 µM, first compound 0.1 µM
[23] = second compound 0.3 µM, first compound 0.316 µM
[24] = second compound 0.3 µM, first compound 1 µM
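Note: spheroids exposed to compounds for 7 days.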
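Throughout, for viability, T/C: 100% = DMSO vehicle control viability.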

- IC50 (second compound 0.000949 µM): < 31.6 nM
- IC50 (second compound 0.003 µM): < 31.6 nM
- IC50 (second compound 0.00949 µM): < 31.6 nM
- IC50 (second compound 0.03 µM): < 31.6 nM
- IC50 (second compound 0.0949 µM): < 31.6 nM
- IC50 (second compound 0.3 µM): < 31.6 nM
SMILES: CC(=O)OC12COC1CC(O)C1(C)C(=O)C(O)C3=C(C)C(OC(=O)C(O)C(NC(=O)OC(C)(C)C)c4ccccc4)CC(O)(C(OC(=O)c4ccccc4)C21)C3(C)C (centres undefined) + CCn1c(-c2cc(N3CCN(C)CC3)cnc2C(C)OC)c2c3cc(ccc31)-c1csc(n1)CC(NC(=O)C1CC1C)C(=O)N1CCCC(N1)C(=O)OCC(C)(C)C2
- viability, T/C [1]: 23.3%
- viability, T/C [2]: 25.6%
- viability, T/C [3]: 26.9%
- viability, T/C [4]: 31.8%
- viability, T/C (second compound 0.000949 µM, first compound 3.16 µM): 29.4%
- viability, T/C (second compound 0.000949 µM, first compound 10 µM): 23.2%
- viability, T/C [5]: 18.8%
- viability, T/C [6]: 19.6%
- viability, T/C [7]: 18.6%
- viability, T/C [8]: 20.6%
- viability, T/C (second compound 0.003 µM, first compound 3.16 µM): 21.5%
- viability, T/C (second compound 0.003 µM, first compound 10 µM): 20.5%
- viability, T/C [9]: 14.5%
- viability, T/C [10]: 15.8%
- viability, T/C [11]: 16.4%
- viability, T/C [12]: 17.7%
- viability, T/C (second compound 0.00949 µM, first compound 3.16 µM): 17.3%
- viability, T/C (second compound 0.00949 µM, first compound 10 µM): 18.3%
- viability, T/C [13]: 16.3%
- viability, T/C [14]: 18.6%
- viability, T/C [15]: 16.1%
- viability, T/C [16]: 17%
- viability, T/C (second compound 0.03 µM, first compound 3.16 µM): 16.9%
- viability, T/C (second compound 0.03 µM, first compound 10 µM): 19.4%
- viability, T/C [17]: 17.9%
- viability, T/C [18]: 16.5%
- viability, T/C [19]: 18.7%
- viability, T/C [20]: 17.8%
- viability, T/C (second compound 0.0949 µM, first compound 3.16 µM): 17%
- viability, T/C (second compound 0.0949 µM, first compound 10 µM): 22.1%
- viability, T/C [21]: 16.7%
- viability, T/C [22]: 17.1%
- viability, T/C [23]: 18.4%
- viability, T/C [24]: 17.8%
- viability, T/C (second compound 0.3 µM, first compound 3.16 µM): 19.9%
- viability, T/C (second compound 0.3 µM, first compound 10 µM): 21.5%

- IC50 (second compound 0.000949 µM): < 3.16 nM
- IC50 (second compound 0.003 µM): < 3.16 nM
- IC50 (second compound 0.00949 µM): < 3.16 nM
- IC50 (second compound 0.03 µM): < 3.16 nM
- IC50 (second compound 0.0949 µM): < 3.16 nM
- IC50 (second compound 0.3 µM): < 3.16 nM
SMILES: Nc1ccn(C2OC(CO)C(O)C2(F)F)c(=O)n1 (centres undefined) + CCn1c(-c2cc(N3CCN(C)CC3)cnc2C(C)OC)c2c3cc(ccc31)-c1csc(n1)CC(NC(=O)C1CC1C)C(=O)N1CCCC(N1)C(=O)OCC(C)(C)C2
- viability, T/C (second compound 0.000949 µM, first compound 0.00316 µM): 30.8%
- viability, T/C (second compound 0.000949 µM, first compound 0.01 µM): 27.9%
- viability, T/C [1]: 25.3%
- viability, T/C [2]: 24.1%
- viability, T/C [3]: 22.2%
- viability, T/C [4]: 19.4%
- viability, T/C (second compound 0.003 µM, first compound 0.00316 µM): 25.6%
- viability, T/C (second compound 0.003 µM, first compound 0.01 µM): 23.5%
- viability, T/C [5]: 20.5%
- viability, T/C [6]: 16.5%
- viability, T/C [7]: 18.6%
- viability, T/C [8]: 17.4%
- viability, T/C (second compound 0.00949 µM, first compound 0.00316 µM): 20.4%
- viability, T/C (second compound 0.00949 µM, first compound 0.01 µM): 21.1%
- viability, T/C [9]: 20.4%
- viability, T/C [10]: 16.3%
- viability, T/C [11]: 15.2%
- viability, T/C [12]: 15.8%
- viability, T/C (second compound 0.03 µM, first compound 0.00316 µM): 18.9%
- viability, T/C (second compound 0.03 µM, first compound 0.01 µM): 20.1%
- viability, T/C [13]: 17.4%
- viability, T/C [14]: 16.1%
- viability, T/C [15]: 15.8%
- viability, T/C [16]: 14.7%
- viability, T/C (second compound 0.0949 µM, first compound 0.00316 µM): 19.3%
- viability, T/C (second compound 0.0949 µM, first compound 0.01 µM): 20.8%
- viability, T/C [17]: 16.7%
- viability, T/C [18]: 15.6%
- viability, T/C [19]: 16.6%
- viability, T/C [20]: 16.4%
- viability, T/C (second compound 0.3 µM, first compound 0.00316 µM): 20%
- viability, T/C (second compound 0.3 µM, first compound 0.01 µM): 20.4%
- viability, T/C [21]: 18.5%
- viability, T/C [22]: 18.7%
- viability, T/C [23]: 18.9%
- viability, T/C [24]: 15.4%

— PubChem BioAssay AID2060901 (Molecular Pharmacology Branch, DTP, NCI, 2025)
